From patent US12714700B2 (priority 2017, dated 2026)

Tested on: ob/ob mice
Conditions: cohort 2 (HFD conditioning, then 50 mg/kg), relative to untreated controls

## N#Cc1ccc2nnc(C(=O)N3CCC(c4cccc(F)c4C(F)(F)F)CC3)n2c1 [Compound 2, 3-(4-(3-fluoro-2-(trifluoromethyl)phenyl)piperidine-1-carbonyl)-[1,2,4]triazolo[4,3-a]pyridine-6-carbonitrile]
  NASH fibrosis scores: reduction
  amount of bridging fibrosis: decrease
